Here are results for six compounds from ChEMBL document CHEMBL1127916, “Synthesis and biological character of 1-hydroxylated vitamin D3 Analogues” (1994).

For experiment [1], the target named is T1, Vitamin D3 receptor (Bos taurus) (UniProt Q28037).
T1 sequence (whole entry): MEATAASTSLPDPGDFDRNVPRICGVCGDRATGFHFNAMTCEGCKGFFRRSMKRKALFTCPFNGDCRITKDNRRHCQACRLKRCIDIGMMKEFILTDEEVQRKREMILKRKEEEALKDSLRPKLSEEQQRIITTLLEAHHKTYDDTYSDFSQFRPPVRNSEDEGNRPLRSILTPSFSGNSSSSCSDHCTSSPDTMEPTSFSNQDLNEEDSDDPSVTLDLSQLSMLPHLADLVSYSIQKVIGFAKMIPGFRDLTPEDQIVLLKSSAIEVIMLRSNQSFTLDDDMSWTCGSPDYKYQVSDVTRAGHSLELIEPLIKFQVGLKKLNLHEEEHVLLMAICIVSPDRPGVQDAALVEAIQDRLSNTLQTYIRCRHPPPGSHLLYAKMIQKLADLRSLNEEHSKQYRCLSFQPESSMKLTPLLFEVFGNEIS
Nature of the experiment: Relative binding for bovine thymus vitamin D receptor (VDR) by displacement with [3H]1-alpha,25(OH)2D3.

In experiment [2] the target is T2, Vitamin D-binding protein (Rattus norvegicus) (UniProt P04276).
T2 sequence (whole entry): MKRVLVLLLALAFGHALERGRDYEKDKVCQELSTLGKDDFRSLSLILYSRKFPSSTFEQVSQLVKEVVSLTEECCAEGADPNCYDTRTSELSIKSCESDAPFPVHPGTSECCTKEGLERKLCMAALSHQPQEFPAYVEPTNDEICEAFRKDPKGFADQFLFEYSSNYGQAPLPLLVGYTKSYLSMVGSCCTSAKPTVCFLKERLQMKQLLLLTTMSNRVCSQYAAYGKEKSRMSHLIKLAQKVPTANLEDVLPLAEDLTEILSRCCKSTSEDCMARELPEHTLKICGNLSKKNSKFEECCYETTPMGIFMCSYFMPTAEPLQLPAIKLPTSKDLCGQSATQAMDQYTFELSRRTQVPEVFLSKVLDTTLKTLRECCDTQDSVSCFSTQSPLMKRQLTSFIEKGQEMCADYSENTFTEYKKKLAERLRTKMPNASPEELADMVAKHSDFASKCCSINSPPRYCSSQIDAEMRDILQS
The experiment can be described thus: Relative binding potency for rat vitamin D binding protein (DBP) by competitive displacement with [3H]1-alpha,25(OH)2D3.

A further experiment concerns HL-60. The experiment can be described thus: Antiproliferative activity in human promyeloid leukemia cells (HL-60). It is filed as functional.

Regarding `C=C1/C(=C\C=C2/CCC[C@@]3(C)C2CC[C@@H]3[C@H](C)CCCC(C)(C)O)C[C@@H](O)[C@@H](OCCCO)[C@H]1O` (stereo partly specified), the figures for the Relative binding potency in experiment [1] and in experiment [2] were 0.003 and 6.7, respectively.

`C=C1/C(=C\C=C2/CCC[C@]3(C)[C@@H]([C@H](C)OCCC(C)(C)O)CC[C@@H]23)C[C@@H](O)C[C@@H]1O` [MAXACALCITOL]: the figures for the Relative binding potency in experiment [1] and in experiment [2] were 0.6 and 0.002, respectively. Moreover, the Relative potency in the experiment with HL-60 came out at 3.1.

With `C=C1/C(=C\C=C2/CCC[C@]3(C)[C@@H]([C@H](C)CCCC(C)(C)O)CC[C@@H]23)C[C@@H](O)C[C@@H]1O` [CALCITRIOL], the Relative binding potency in experiment [1] and in experiment [2] was 1 each time. In addition, the Relative potency in the experiment with HL-60 is reported as 1.

Take `C=C1/C(=C\C=C2/CCC[C@@]3(C)C2CC[C@@H]3[C@H](C)OCCC(C)(C)O)C[C@@H](O)C[C@H]1O` (stereo partly specified): the Relative binding potency in experiment [1] and in experiment [2] was 0.007 throughout. In the experiment on HL-60, this compound showed a Relative potency of 0.003.

Regarding `C=C1/C(=C\C=C2/CCC[C@@]3(C)C2CC[C@@H]3[C@H](C)CCCC(C)(C)O)C[C@@H](O)[C@@H](OCCCO)[C@@H]1O` (stereo partly specified), the figures for the Relative binding potency in experiment [1] and in experiment [2] were 0.7 and 4.1, respectively.

In the case of `C=C1/C(=C\C=C2/CCC[C@@]3(C)C2CC[C@@H]3[C@H](C)CCCC(C)(C)O)C[C@@H](O)C[C@H]1O` (stereo partly specified), the Relative binding potency in experiment [1] turned out to be 0.2; in experiment [2], 2.9. This compound also came in with a Relative potency with HL-60 of 0.2.
